PubChem BioAssay AID977614 (Broad Institute, 2014)
Active and inactive are the calls of the source.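 The calls were made as follows: active = parasite count per well reduced by over 3 SD from the mean, with host cell number above 80% of untreated; inactive = the rest.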

Test system: L. donovani amastigotes in THP-1 macrophages, DAPI imaging, 72 h
Experiment: antileishmanial activity in infected macrophages – imaging, THP-1 host macrophages, single concentration (AID 977614);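 also: signal is the parasite per host cell ratio from DAPI stained kinetoplasts and nuclei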

SMILES | AC50
CC(=O)N1C[C@H]2[C@@H](c3ccccc31)[C@@H](CO)N2Cc1ccc(Cl)cc1 | > 10 µM (inactive)
CN1C[C@H]2[C@@H](c3ccccc31)[C@@H](CO)N2Cc1ccccc1Cl | > 10 µM (inactive)
C/C=C/c1ccc([C@H]2[C@@H](CN(C)C(=O)CC3CC3)N(C(=O)C3CC3)[C@H]2CO)cc1 | > 10 µM (inactive)
COc1ccc(C(=O)N2C[C@H]3[C@@H](c4ccccc42)[C@@H](CO)N3C(=O)NC(C)C)cc1 | > 10 µM (inactive)
CC(=O)N1[C@@H](CO)[C@H](c2ccccc2)[C@@H]1CN(CC1CCC1)C(=O)CN(C)C | > 10 µM (inactive)
O=C(Nc1ccc(F)cc1)N1[C@H](CO)[C@H]2c3ccccc3NC[C@H]21 | > 10 µM (inactive)
CN(C[C@H]1[C@@H](c2ccccc2)[C@@H](CO)N1C(=O)C1CCC1)C(=O)c1ccncc1 | > 10 µM (inactive)
COc1cccc(C(=O)N2C[C@H]3[C@@H](c4ccccc42)[C@H](CO)N3C(=O)c2cccc(F)c2)c1 | > 10 µM (inactive)
COc1ccc(CN2[C@@H]3CNc4ccccc4[C@@H]3[C@@H]2CO)cc1 | > 10 µM (inactive)
COCC(=O)N(C)C[C@H]1[C@H](c2ccccc2)[C@@H](CO)N1C(=O)Cc1ccncc1 | > 10 µM (inactive)
C[C@H](CO)N1C[C@H](C)[C@H](CN(C)C(=O)Oc2cccc3ccccc23)OCc2cnnn2CCCC1=O | > 10 µM (inactive)
O=S(=O)(c1ccccc1)N1C[C@@H]2[C@H](c3ccccc31)[C@H](CO)N2Cc1ccccn1 | > 10 µM (inactive)
CCC(=O)N1C[C@@H]2[C@H](c3ccccc31)[C@H](CO)N2C(=O)CC1CC1 | > 10 µM (inactive)
OC[C@@H]1[C@@H]2c3ccccc3NC[C@@H]2N1CC1CCOCC1 | > 10 µM (inactive)
O=C(c1ccc2c(c1)OCO2)N1C[C@H]2[C@@H](c3ccccc31)[C@H](CO)N2C(=O)CC1CC1 | > 10 µM (inactive)
COc1ccccc1CN1[C@H](CO)[C@@H]2c3ccccc3N(C(=O)c3cccnc3)C[C@@H]21 | > 10 µM (inactive)
O=C(C1CCC1)N1C[C@@H]2[C@H](c3ccccc31)[C@H](CO)N2C(=O)Nc1cccc(F)c1 | > 10 µM (inactive)
CNC[C@H]1OCc2cn(nn2)CCCC(=O)N([C@H](C)CO)C[C@@H]1C | > 10 µM (inactive)
COCC(=O)N1C[C@H]2[C@@H](c3ccccc31)[C@H](CO)N2Cc1cc(F)ccc1F | > 10 µM (inactive)
C/C=C/c1ccc([C@@H]2[C@@H](CO)N(C(C)=O)[C@H]2CN(CC)C(=O)CN(C)C)cc1 | > 10 µM (inactive)
O=C(c1ccc2c(c1)OCO2)N1C[C@H]2[C@@H](c3ccccc31)[C@H](CO)N2Cc1cccnc1 | > 10 µM (inactive)
COc1ccccc1C(=O)N1C[C@H]2[C@@H](c3ccccc31)[C@H](CO)N2C(=O)Cc1ccccc1 | > 10 µM (inactive)
CCCNC[C@H]1[C@@H](c2ccc(-c3cccc(C#N)c3)cc2)[C@@H](CO)N1C(C)=O | > 10 µM (inactive)
COc1ccc(CN2[C@@H]3CN(C(=O)NC(C)C)c4ccccc4[C@@H]3[C@@H]2CO)cc1 | > 10 µM (inactive)
COc1ccc(C(=O)N2C[C@H]3[C@@H](c4ccccc42)[C@H](CO)N3C(=O)NC(C)C)cc1 | > 10 µM (inactive)
C[C@@H]1CN([C@@H](C)CO)C(=O)CCCn2cc(nn2)CO[C@H]1CN(C)C(=O)Nc1cccc(C(F)(F)F)c1 | > 10 µM (inactive)

SMILES | AC50
O=C(CC(F)(F)F)N1C[C@@H]2[C@H](c3ccccc31)[C@H](CO)N2C(=O)c1ccncc1 | > 10 µM (inactive)
Cc1noc(C)c1S(=O)(=O)N(C)C[C@@H]1OCc2cn(nn2)CCCC(=O)N([C@@H](C)CO)C[C@@H]1C | > 10 µM (inactive)
O=C(C1CCC1)N1C[C@H]2[C@@H](c3ccccc31)[C@@H](CO)N2Cc1ccccc1 | > 10 µM (inactive)
C[C@@H]1CN([C@@H](C)CO)C(=O)CCCn2cc(nn2)CO[C@@H]1CN(C)S(=O)(=O)c1cn(C)cn1 | > 10 µM (inactive)
CC(C)N(C[C@H]1[C@@H](c2ccccc2)[C@@H](CO)N1CC1CC1)C(=O)C1CCC1 | > 10 µM (inactive)
C[C@@H]1CN([C@@H](C)CO)C(=O)CCCn2nncc2CO[C@@H]1CN(C)Cc1ccccc1C(=O)O | > 10 µM (inactive)
CCCC(=O)N1C[C@@H]2[C@H](c3ccccc31)[C@@H](CO)N2C(=O)Nc1ccc(F)cc1 | > 10 µM (inactive)
C[C@@H]1CN([C@H](C)CO)C(=O)CCCn2cc(nn2)CO[C@H]1CN(C)Cc1ccccc1 | > 10 µM (inactive)
C[C@@H]1CN([C@@H](C)CO)C(=O)CCCn2nncc2CO[C@H]1CN(C)S(=O)(=O)c1ccc2c(c1)OCCCO2 | > 10 µM (inactive)
Cc1noc(C)c1NC(=O)N(C)C[C@H]1OCc2cn(nn2)CCCC(=O)N([C@H](C)CO)C[C@H]1C | > 10 µM (inactive)
C[C@H](CO)N1C[C@H](C)[C@H](CN(C)Cc2ccc(C(=O)Nc3ccccc3N)cc2)OCc2cnnn2CCCC1=O | > 10 µM (inactive)
CC(=O)NC[C@H]1[C@@H](c2ccc(C#Cc3ccccc3F)cc2)[C@@H](CO)N1C(C)=O | > 10 µM (inactive)
C[C@H](CO)N1C[C@H](C)[C@@H](CN(C)C(=O)Nc2cccc(C(F)(F)F)c2)OCc2cn(nn2)CCCC1=O | > 10 µM (inactive)
O=C(Nc1ccccc1F)N1C[C@H]2[C@@H](c3ccccc31)[C@@H](CO)N2C(=O)Cc1cccnc1 | > 10 µM (inactive)
C/C=C/c1ccc([C@@H]2[C@H](CO)N[C@H]2CN(CC)C(=O)CN2CCOCC2)cc1 | > 10 µM (inactive)
C[C@H](CO)N1C[C@H](C)[C@H](CN(C)C(=O)CCC(F)(F)F)OCc2cnnn2CCCC1=O | > 10 µM (inactive)
CC(=O)N1C[C@@H]2[C@H](c3ccccc31)[C@H](CO)N2Cc1ccc(Cl)cc1 | > 10 µM (inactive)
C[C@H](CO)N1C[C@H](C)[C@@H](CN(C)C(=O)CCC(F)(F)F)OCc2cn(nn2)CCCC1=O | > 10 µM (inactive)
Cc1noc(C)c1NC(=O)N(C)C[C@H]1OCc2cnnn2CCCC(=O)N([C@@H](C)CO)C[C@@H]1C | > 10 µM (inactive)
O=C(c1cccc(F)c1)N1C[C@H]2[C@@H](c3ccccc31)[C@@H](CO)N2Cc1cocn1 | > 10 µM (inactive)
C/C=C/c1ccc([C@H]2[C@@H](CO)N(C(C)=O)[C@@H]2CN(CC)C(=O)CN(C)C)cc1 | > 10 µM (inactive)
C[C@@H]1CN([C@@H](C)CO)C(=O)CCCn2cc(nn2)CO[C@H]1CN(C)S(=O)(=O)c1ccc(-n2cccn2)cc1 | > 10 µM (inactive)
CC(=O)N1[C@H](CO)[C@H]2c3ccccc3N(C(=O)c3ccc(F)cc3)C[C@H]21 | > 10 µM (inactive)
COCCN(C[C@H]1N[C@H](CO)[C@@H]1c1ccc(-c2cccc(C#N)c2)cc1)C(C)=O | > 10 µM (inactive)
C[C@@H]1CN([C@@H](C)CO)C(=O)CCCn2cc(nn2)CO[C@@H]1CN(C)C(=O)c1ccc(N2CCN(C)CC2)cc1 | > 10 µM (inactive)
O=C(NC[C@@H]1[C@H](c2ccccc2)[C@@H](CO)N1C(=O)C1CCC1)NC1CCCC1 | > 10 µM (inactive)

SMILES | AC50
O=C(C1CCCCC1)N1[C@@H](CO)[C@@H]2c3ccccc3NC[C@@H]21 | > 10 µM (inactive)
C[C@H](CO)N1C[C@H](C)[C@H](CN(C)C(=O)c2cc(-c3ccccc3)on2)OCc2cnnn2CCCC1=O | > 10 µM (inactive)
CC(=O)N1[C@@H]2CN(C(=O)c3ccc(F)cc3)c3ccccc3[C@@H]2[C@@H]1CO | > 10 µM (inactive)
CCCNC(=O)N1C[C@H]2[C@@H](c3ccccc31)[C@H](CO)N2C(=O)CN1CCOCC1 | > 10 µM (inactive)
O=C(c1ccc2c(c1)OCO2)N1C[C@@H]2[C@H](c3ccccc31)[C@@H](CO)N2C(=O)CC1CC1 | > 10 µM (inactive)
CC(=O)N1[C@H](CO)[C@H](c2ccccc2)[C@@H]1CNC(=O)CN1CCOCC1 | > 10 µM (inactive)
COc1ccccc1NC(=O)N1C[C@@H]2[C@H](c3ccccc31)[C@H](CO)N2Cc1ccc2c(c1)OCO2 | > 10 µM (inactive)
C/C=C/c1ccc([C@H]2[C@@H](CO)N[C@@H]2CNC(=O)C2CC2)cc1 | > 10 µM (inactive)
C/C=C/c1ccc([C@H]2[C@@H](CNC(C)=O)N(C(=O)Cc3ccncc3)[C@H]2CO)cc1 | > 10 µM (inactive)
C[C@@H]1CN([C@H](C)CO)C(=O)CCCn2nncc2CO[C@H]1CN(C)S(=O)(=O)c1ccccc1C#N | > 10 µM (inactive)
C/C=C/c1ccc([C@@H]2[C@@H](CN(C)C(=O)CC3CC3)N(C(=O)C3CC3)[C@H]2CO)cc1 | > 10 µM (inactive)
CCCNC(=O)N(Cc1cccnc1)C[C@H]1N[C@H](CO)[C@@H]1c1ccccc1 | > 10 µM (inactive)
C/C=C/c1ccc([C@H]2[C@@H](CO)N(S(=O)(=O)CC)[C@H]2CN(C)C(=O)CC)cc1 | > 10 µM (inactive)
C[C@H](CO)N1C[C@H](C)[C@@H](CN(C)C(=O)c2cc(-c3ccccc3)on2)OCc2cnnn2CCCC1=O | > 10 µM (inactive)
O=C(c1cnccn1)N1C[C@H]2[C@@H](c3ccccc31)[C@@H](CO)N2CC1CCCC1 | > 10 µM (inactive)
CCC(=O)N1[C@@H](CO)[C@@H]2c3ccccc3N(C(=O)c3cnccn3)C[C@@H]21 | > 10 µM (inactive)
C[C@H](CO)N1C[C@H](C)[C@H](CN(C)C(=O)Nc2ccc3c(c2)OCCO3)OCc2cnnn2CCCC1=O | > 10 µM (inactive)
COc1ccc(CN(C)C[C@H]2OCc3cnnn3CCCC(=O)N([C@H](C)CO)C[C@@H]2C)cc1 | > 10 µM (inactive)
C[C@H](CO)N1C[C@H](C)[C@@H](CN(C)Cc2ccccc2C(=O)O)OCc2cnnn2CCCC1=O | > 10 µM (inactive)
C/C=C/c1ccc([C@H]2[C@H](CO)N[C@H]2CN(CC(C)C)C(=O)c2ccccn2)cc1 | > 10 µM (inactive)
C[C@H]1CN([C@@H](C)CO)C(=O)CCCn2cc(nn2)CO[C@@H]1CN(C)S(=O)(=O)c1ccc(-n2cccn2)cc1 | > 10 µM (inactive)
CCN(C[C@H]1[C@H](c2ccccc2)[C@@H](CO)N1C(C)=O)C(=O)NC1CCCC1 | > 10 µM (inactive)
COCC(=O)N1C[C@H]2[C@@H](c3ccccc31)[C@@H](CO)N2Cc1cc(F)ccc1F | > 10 µM (inactive)
COc1ccc(NC(=O)N(C)C[C@H]2OCc3cnnn3CCCC(=O)N([C@@H](C)CO)C[C@H]2C)c(OC)c1 | > 10 µM (inactive)
